Among the test systems are OVCAR-4 ovarian; U251 CNS; SF-539 CNS; HCT-15 colon; MCF7 breast; SNB-19 CNS; SK-MEL-28 melanoma; SN12C renal; OVCAR-8 ovarian; UACC-62 melanoma.
Test in all cases: NCI anticancer screen, dose series, 48 h

We go through eight compounds from PubChem BioAssay (NCI).

Values joined by “and” are separate entries in the source; they are usually repeats but may differ in a detail not shown here. Equal entries are not always repeated.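 Dose response: 5 concentrations. Exposure: 48 h. Format: 96-well plates. Endpoint: linear interpolation; highest concentration if not reached. GI50 marks 50% less growth. TGI: total growth inhibition.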 A value given as a limit tells only on which side of the number the result lay.

In the case of `Oc1cc(Cl)ccc1Cc1ccc(Cl)cc1O`, the GI50 with OVCAR-4 ovarian was 6.6 µM; in the experiment with U251 CNS it was 6.7 µM; in the experiment on SF-539 CNS, 11.4 µM; with HCT-15 colon, 8.09 µM; in the experiment with MCF7 breast, 13.2 µM; in the experiment with SNB-19 CNS, 14.3 µM. Moreover, the GI50 was 8.26 µM with SK-MEL-28 melanoma, 7.92 µM with SN12C renal, 15.1 µM in the experiment on OVCAR-8 ovarian and 4.9 µM in the experiment on UACC-62 melanoma. Also, the TGI was 34.8 µM in the experiment with OVCAR-4 ovarian; 21.7 µM in the experiment with U251 CNS; 25.4 µM with SF-539 CNS; 20.3 µM with HCT-15 colon; 27.9 µM in the experiment with MCF7 breast; 45.1 µM in the experiment with SNB-19 CNS. Moreover, the TGI worked out at 20.7 µM in the experiment on SK-MEL-28 melanoma, 20.6 µM in the experiment on SN12C renal, 48.8 µM in the experiment on OVCAR-8 ovarian and 16.3 µM with UACC-62 melanoma.
In the case of `CC1(C)N[P+]2(Nc3ccccc3O2)OC1=O` (centres undefined), the TGI in the experiment with OVCAR-4 ovarian, in the experiment on U251 CNS, with SF-539 CNS, in the experiment with HCT-15 colon, in the experiment with MCF7 breast and in the experiment with SNB-19 CNS was over 100 µM each time. The TGI is over 100 µM in the experiment on SK-MEL-28 melanoma, over 100 µM in the experiment with SN12C renal, over 100 µM in the experiment with OVCAR-8 ovarian and 64 µM in the experiment on UACC-62 melanoma.
Take `O=[N+]([O-])/C=C/c1ccc([N+](=O)[O-])cc1`: the GI50 in the experiment on OVCAR-4 ovarian was 3.65 µM; in the experiment on U251 CNS it was 1.78 µM; in the experiment on SF-539 CNS, 2.46 µM; in the experiment on HCT-15 colon it was 2.02 µM; in the experiment with MCF7 breast it was 1.84 µM; in the experiment on SNB-19 CNS it was 3.53 µM. The GI50 is 2.74 µM in the experiment on SK-MEL-28 melanoma, 2.37 µM with SN12C renal, 3.68 µM in the experiment on OVCAR-8 ovarian and 2.09 µM in the experiment on UACC-62 melanoma. In addition, the TGI was determined as 22.3 µM in the experiment on OVCAR-4 ovarian; 3.52 µM in the experiment with U251 CNS; 4.89 µM with SF-539 CNS; 5.58 µM in the experiment on HCT-15 colon; 5.29 µM with MCF7 breast; 14.9 µM in the experiment with SNB-19 CNS. In addition, the TGI was 7.57 µM in the experiment with SK-MEL-28 melanoma, 6.83 µM in the experiment on SN12C renal, 15.1 µM with OVCAR-8 ovarian and 6.15 µM in the experiment on UACC-62 melanoma.
Take `COc1ccc(-c2ccccc2)cc1-c1c(Nc2cc(Cl)cc(Cl)c2O)c(=O)c1=O`: the GI50 in the experiment on OVCAR-4 ovarian was 1.59 µM; in the experiment with U251 CNS, 1.63 µM; with SF-539 CNS, 1.59 µM; with HCT-15 colon, 1.5 µM; with MCF7 breast, 1.3 µM; with SNB-19 CNS it was 1.84 µM. Also, the GI50 in the experiment on SK-MEL-28 melanoma is 2.05 µM; in the experiment on SN12C renal it was 1.48 µM; in the experiment on OVCAR-8 ovarian, 1.84 µM; with UACC-62 melanoma, 1.29 µM. In addition, the TGI in the experiment with OVCAR-4 ovarian, in the experiment with U251 CNS, in the experiment with SF-539 CNS, in the experiment on HCT-15 colon, in the experiment on MCF7 breast and in the experiment on SNB-19 CNS was over 50 µM in each case. Besides, the TGI in the experiment with SK-MEL-28 melanoma, in the experiment with SN12C renal, with OVCAR-8 ovarian and in the experiment on UACC-62 melanoma was over 50 µM in each case.
`COc1ccc(-c2nc3sc4c(c3c(=O)[nH]2)CCCC4)c2ccccc12`: the GI50 in the experiment on OVCAR-4 ovarian is 2.23 µM; in the experiment on U251 CNS, 0.369 µM; with SF-539 CNS it was 0.211 µM and 0.0213 µM; in the experiment on SNB-19 CNS it was 0.411 µM and 0.0467 µM; in the experiment on SK-MEL-28 melanoma it was 0.468 µM; in the experiment with SN12C renal, 0.514 µM and 0.0702 µM. Moreover, in the experiment on OVCAR-8 ovarian, the GI50 was 0.474 µM and 0.0475 µM. The TGI in the experiment with SF-539 CNS was 0.544 µM and 0.0746 µM; with HCT-15 colon it was over 100 µM; in the experiment on MCF7 breast it was over 100 µM; in the experiment with SNB-19 CNS it was over 100 µM; in the experiment on SN12C renal, over 100 µM; in the experiment on OVCAR-8 ovarian, over 100 µM. This compound registered a TGI in the experiment with UACC-62 melanoma of 16.3 µM.
For `Cc1ccc(/C(=C/C=C(C#N)C#N)Sc2ccccn2)cc1`, the GI50 was 3.01 µM with OVCAR-4 ovarian; 5.02 µM in the experiment with U251 CNS; 2.08 µM with SF-539 CNS; 4.09 µM with HCT-15 colon; 4.62 µM with MCF7 breast; 10.1 µM in the experiment on SNB-19 CNS. For the same compound, the GI50 with SK-MEL-28 melanoma is 2.08 µM; with SN12C renal, 1.91 µM; in the experiment with OVCAR-8 ovarian it was 7.41 µM; with UACC-62 melanoma, 2.51 µM. For the same compound, the TGI in the experiment on OVCAR-4 ovarian is 11.6 µM; with U251 CNS it was 20.3 µM; in the experiment with SF-539 CNS, 6.44 µM; with HCT-15 colon it was 15.8 µM; in the experiment on MCF7 breast, 36 µM; with SNB-19 CNS it was over 45.5 µM. Besides, the TGI in the experiment on SK-MEL-28 melanoma worked out at 4.51 µM; in the experiment on SN12C renal it was 4.72 µM; in the experiment with OVCAR-8 ovarian it was 24.3 µM; in the experiment on UACC-62 melanoma it was 7.23 µM.
Turning to `COc1ccc2c(c1)[C@@]1(C)CCC3c4ccc(O)cc4CCC3C1C2` (some centres undefined), the GI50 was 13.7 µM with OVCAR-4 ovarian; 15.6 µM in the experiment on U251 CNS; 20.3 µM in the experiment with SF-539 CNS; 12.3 µM in the experiment on HCT-15 colon; 15.1 µM with MCF7 breast; 16.2 µM with SNB-19 CNS. Also, the GI50 in the experiment on SK-MEL-28 melanoma was 15.2 µM; in the experiment on SN12C renal, 16.8 µM; with OVCAR-8 ovarian, 17.1 µM; in the experiment with UACC-62 melanoma it was 17.6 µM. For the same compound, the TGI was 28.4 µM in the experiment with OVCAR-4 ovarian; 29.9 µM in the experiment with U251 CNS; 38.9 µM in the experiment on SF-539 CNS; 28 µM in the experiment on HCT-15 colon; 30.8 µM with MCF7 breast; 30.7 µM in the experiment with SNB-19 CNS. The TGI is 30.3 µM in the experiment with SK-MEL-28 melanoma, 32 µM in the experiment with SN12C renal, 38.8 µM in the experiment on OVCAR-8 ovarian and 32.9 µM in the experiment with UACC-62 melanoma.
`O=[N+]([O-])c1cccc(-c2cc(-c3cc(Br)ccc3O)[nH]n2)c1`: the GI50 was 3.45 µM in the experiment on OVCAR-4 ovarian; 3.24 µM in the experiment with U251 CNS; 2.89 µM with SF-539 CNS; 2.53 µM in the experiment on HCT-15 colon; 1.42 µM in the experiment on MCF7 breast; 3.26 µM in the experiment on SNB-19 CNS. Moreover, the GI50 is 2.88 µM in the experiment on SK-MEL-28 melanoma, 3.19 µM in the experiment on SN12C renal, 2.89 µM in the experiment with OVCAR-8 ovarian and 2.63 µM in the experiment with UACC-62 melanoma. The TGI with OVCAR-4 ovarian is 17.3 µM; in the experiment on U251 CNS, 11.9 µM; in the experiment on SF-539 CNS it was 11 µM; in the experiment with HCT-15 colon it was 12.9 µM; in the experiment on MCF7 breast, 7.05 µM; in the experiment with SNB-19 CNS, 12.3 µM. Further, the TGI in the experiment with SK-MEL-28 melanoma is 10.5 µM; in the experiment with SN12C renal, 12.4 µM; with OVCAR-8 ovarian, 10.5 µM; in the experiment on UACC-62 melanoma, 11.7 µM.
